Experimental data reported in US7745390B2, “Antimicrobial peptides” (priority 2005, dated 2010).
≈ marks a conversion by molar mass, not a printed value. Square brackets hold non-standard residues; d marks the D form. Peptide text beside a SMILES is read from it.

Tests used:
Assay type in all cases: cell-based
E. coli DH5a = details: DH5a
Procedure, shortened: (§1)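 Bacterial suspensions (~5×10^6 CFU/ml) and serially diluted peptides, both in low-nutrient phosphate buffer (pH 7.2, 0.03% LB), are combined and held 3 h at 37 °C. Full LB is added for overnight growth. The MIC marks no growth, and IC50 marks 50% growth relative to medium.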

B. cereus [1] = details: pH 7.2
Procedure, shortened: as §1

Salmonella typhimurium = assay: CFU assay in 10% FCS/DMEM; details: 3 hrs
Procedure: (§2) The CFU assay is the “gold standard” for evaluating antibiotics. Briefly, bacteria are grown overnight in rich medium, such as LB, and then diluted and grown in log phase for 2-4 hours. Cultures are set up as above, with the initial culture media being 10 mM phosphate buffer/0.03% LB; DMEM or RPMI; or DMEM or RPMI plus 10% serum (fetal calf, human, or mouse). After various periods of time, but generally 3 hours or less, aliquots are removed, diluted in LB at various dilutions, and plated on LB agar plates. Plates are incubated overnight at 37° C. and counted on an automatic colony counter.
(§3) Three preferred peptides G11.46, G12.21 and G14.15, discussed above, were further tested for antimicrobial efficacy under various conditions using the 10% FCS/DMEM assay as described under CFU assay. The incubation times with the bacteria and peptide was three hours, at which time the bacteria were diluted and plated on agar. […] The MIC for each compound is highlighted.

Staphylococcus aureus = assay: CFU assay in 10% FCS/DMEM; details: 3 hrs
Procedure: as §2, §3

B. cereus [2] = assay: CFU assay in 10% FCS/DMEM; details: 3 hrs
Procedure: as §2, §3

CSCC[C@H](NC(=O)[C@H](Cc1ccccc1)NC(=O)[C@@H](CCCNC(=N)N)NC(=O)[C@@H](CCCNC(=N)N)NC(=O)[C@H](CO)NC(=O)[C@@H](NC(=O)[C@@H](CCCNC(=N)N)NC(=O)[C@@H](CCCNC(=N)N)NC(=O)[C@@H](CCCNC(=N)N)NC(=O)[C@@H](CCCNC(=N)N)NC(=O)[C@@H](CCCNC(=N)N)NC(=O)[C@@H](CCCNC(=N)N)NC(=O)[C@H](N)CCCNC(=N)N)C(C)C)C(=O)N[C@H](CCCNC(=N)N)C(=O)N[C@H](CCCNC(=N)N)C(=O)O [Peptide G11.46, rrrrrrrVSrrFMrr] (H-[dR][dR][dR][dR][dR][dR][dR]VS[dR][dR]FM[dR][dR]-OH; N-terminus and C-terminus assumed)
MIC (E. coli DH5a): 0.8 µM (≈ 1.76 µg/mL) | E. coli DH5a MIC (E. coli DH5a; pH 7.2): 0.8 µM | IC50 (E. coli DH5a; pH 7.2): 100 nM | B. cereus MIC (B. cereus [1]): 0.35 µM | IC50 (B. cereus [1]): 200 nM | % Survival (CFU Assay) (Salmonella typhimurium; 0.02 μM): 116.09% | % Survival (CFU Assay) (Salmonella typhimurium; 0.04 μM): 126.32% | % Survival (CFU Assay) (Salmonella typhimurium; 0.08 μM): 105% | % Survival (CFU Assay) (Salmonella typhimurium; 0.16 μM): 71.35% | % Survival (CFU Assay) (Salmonella typhimurium; 0.32 μM): 24.68% | % Survival (CFU Assay) (Salmonella typhimurium; 0.63 μM): 1.45% | % Survival (CFU Assay) (Salmonella typhimurium; 1.25 μM): 0.03% | % Survival (CFU Assay) (Salmonella typhimurium; 2.5 μM): <0.002% | % Survival (CFU Assay) (Staphylococcus aureus; 0.005 μM): 19.9% | % Survival (CFU Assay) (Staphylococcus aureus; 0.01 μM): 8.04% | % Survival (CFU Assay) (Staphylococcus aureus; 0.02 μM): 2.3% | % Survival (CFU Assay) (Staphylococcus aureus; 0.04 μM): 0.84% | % Survival (CFU Assay) (Staphylococcus aureus; 0.08 μM): 0.2% | % Survival (CFU Assay) (Staphylococcus aureus; 0.16 μM): 0.02% | % Survival (CFU Assay) (B. cereus [2]; 0.005 uM): 103.49% | % Survival (CFU Assay) (B. cereus [2]; 0.01 uM): 44.62% | % Survival (CFU Assay) (B. cereus [2]; 0.02 uM): <0.5% | % Survival (CFU Assay) (B. cereus [2]; 0.04 uM): 0.02% | % Survival (CFU Assay) (B. cereus [2]; 0.08 uM): 0.002% | % Survival (CFU Assay) (B. cereus [2]; 0.16 uM): 0.002%
